Earlier results in patent publication US20060046998A1, “Method of treatment of gastroesophageal reflux disease and laryngopharyngeal reflux disease” (Fairfield Clinical Trials, LLC, priority 2004, published 2006).

Details: oral, when beginning a course of PPI therapy

Structure (SMILES)	time to obtain maximal symptomatic relief
COc1ccc2nc([S@@+]([O-])Cc3ncc(C)c(OC)c3C)[nH]c2c1 [esomeprazole]	four
Cc1c(OCC(F)(F)F)ccnc1C[S+]([O-])c1nc2ccccc2[nH]1 (centres unmarked) [lansoprazole]	five
